Columns and labels:
[1] = Antiproliferative activity against human SF268 cells assessed as cell growth at 10^-6 M after 48 hrs by sulforhodamine B assay; type: functional; conditions: SF-268, 48 h, read-out: Activity
[2] = system: U-251; assay: Antiproliferative activity against human U251 cells assessed as cell growth at 10^-7 M after 48 hrs by sulforhodamine B assay; type: functional; conditions: U-251, 48 h, read-out: Activity
[3] = Antiproliferative activity against human Caki1 cells assessed as cell growth at 10^-6 M after 48 hrs by sulforhodamine B assay; type: functional; conditions: CAKI-1, 48 h, read-out: Activity
[4] = target: CYP2C19 (Homo sapiens, UniProt P33261); assay: Inhibition of recombinant human CYP2C19 assessed as remaining enzyme activity at 10 uM after 5 mins in presence of NADP by fluorescence plate reader analysis; type: ADME; conditions: read-out: Activity
Chain of CYP2C19 (P33261 whole entry): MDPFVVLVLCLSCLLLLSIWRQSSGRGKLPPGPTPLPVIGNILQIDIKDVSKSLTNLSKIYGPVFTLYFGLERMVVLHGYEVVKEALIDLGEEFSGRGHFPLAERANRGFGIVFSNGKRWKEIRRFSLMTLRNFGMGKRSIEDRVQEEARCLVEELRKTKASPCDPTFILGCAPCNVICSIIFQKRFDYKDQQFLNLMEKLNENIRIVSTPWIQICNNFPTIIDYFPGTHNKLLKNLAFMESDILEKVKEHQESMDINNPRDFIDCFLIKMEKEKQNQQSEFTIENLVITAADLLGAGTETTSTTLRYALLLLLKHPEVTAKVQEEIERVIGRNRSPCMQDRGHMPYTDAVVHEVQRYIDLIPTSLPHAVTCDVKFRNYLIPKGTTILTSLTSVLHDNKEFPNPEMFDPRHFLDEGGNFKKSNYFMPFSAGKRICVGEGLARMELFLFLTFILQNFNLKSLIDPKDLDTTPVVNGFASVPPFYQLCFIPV

[5] = Antiproliferative activity against human BT549 cells assessed as cell growth at 10^-4 M after 48 hrs by sulforhodamine B assay; type: functional; conditions: BT-549, 48 h, read-out: Activity
[6] = Antiproliferative activity against human OVCAR3 cells assessed as cell growth at 10^-7 M after 48 hrs by sulforhodamine B assay; type: functional; conditions: OVCAR-3, 48 h, read-out: Activity
[7] = system: NCI-H226; assay: Antiproliferative activity against human NCI-H226 cells assessed as cell growth at 10^-8 M after 48 hrs by sulforhodamine B assay; type: functional; conditions: NCI-H226, 48 h, read-out: Activity
[8] = Antiproliferative activity against human SNB75 cells assessed as growth inhibition after 48 hrs by sulforhodamine B assay; type: functional; conditions: SNB-75, 48 h; for CC50: read-out: LC50 (the source's name)
[9] = Antiproliferative activity against human DU145 cells assessed as cell growth at 10^-6 M after 48 hrs by sulforhodamine B assay; type: functional; conditions: DU-145, 48 h, read-out: Activity
[10] = Antiproliferative activity against human HCT15 cells assessed as cell growth at 10^-4 M after 48 hrs by sulforhodamine B assay; type: functional; conditions: HCT-15, 48 h, read-out: Activity
[11] = Antiproliferative activity against human SF539 cells assessed as cell growth at 10^-7 M after 48 hrs by sulforhodamine B assay; type: functional; conditions: SF-539, 48 h, read-out: Activity
[12] = Antiproliferative activity against human Hs 578T cells assessed as cell growth at 10^-8 M after 48 hrs by sulforhodamine B assay; type: functional; conditions: read-out: Activity
[13] = Antiproliferative activity against human SKOV3 cells assessed as cell growth at 10^-8 M after 48 hrs by sulforhodamine B assay; type: functional; conditions: SK-OV-3, 48 h, read-out: Activity
[14] = system: NCI-H322M; assay: Antiproliferative activity against human NCI-H322M cells assessed as cell growth at 10^-8 M after 48 hrs by sulforhodamine B assay; type: functional; conditions: read-out: Activity
[15] = system: EKVX; assay: Antiproliferative activity against human EKVX cells assessed as cell growth at 10^-4 M after 48 hrs by sulforhodamine B assay; type: functional; conditions: read-out: Activity
[16] = Antiproliferative activity against human UACC62 cells assessed as cell growth at 10^-4 M after 48 hrs by sulforhodamine B assay; type: functional; conditions: UACC-62, 48 h, read-out: Activity
[17] = system: NCI-H522; assay: Antiproliferative activity against human NCI-H522 cells assessed as cell growth at 10^-4 M after 48 hrs by sulforhodamine B assay; type: functional; conditions: NCI-H522, 48 h, read-out: Activity
[18] = Antiproliferative activity against human HCT116 cells assessed as cell growth at 10^-6 M after 48 hrs by sulforhodamine B assay; type: functional; conditions: HCT-116, 48 h, read-out: Activity
[19] = Antiproliferative activity against human SKOV3 cells assessed as cell growth at 10^-7 M after 48 hrs by sulforhodamine B assay; type: functional; conditions: SK-OV-3, 48 h, read-out: Activity
[20] = Antiproliferative activity against human HL-60(TB) cells assessed as cell growth at 10^-6 M after 48 hrs by sulforhodamine B assay; type: functional; conditions: HL-60, 48 h, read-out: Activity
[21] = system: Malme-3M; assay: Antiproliferative activity against human MALME-3M cells assessed as cell growth at 10^-7 M after 48 hrs by sulforhodamine B assay; type: functional; conditions: read-out: Activity
[22] = Antiproliferative activity against human SNB75 cells assessed as cell growth at 10^-7 M after 48 hrs by sulforhodamine B assay; type: functional; conditions: SNB-75, 48 h, read-out: Activity
[23] = system: SR; assay: Antiproliferative activity against human SR cells assessed as cell growth at 10^-6 M after 48 hrs by sulforhodamine B assay; type: functional; conditions: read-out: Activity
[24] = target: Voltage-gated inwardly rectifying potassium channel KCNH2 (Homo sapiens, UniProt Q12809); assay: Inhibition of human ERG assessed as reduction in channel current by automated patch-clamp electrophysiology assay
Chain of Voltage-gated inwardly rectifying potassium channel KCNH2 (Q12809 whole entry): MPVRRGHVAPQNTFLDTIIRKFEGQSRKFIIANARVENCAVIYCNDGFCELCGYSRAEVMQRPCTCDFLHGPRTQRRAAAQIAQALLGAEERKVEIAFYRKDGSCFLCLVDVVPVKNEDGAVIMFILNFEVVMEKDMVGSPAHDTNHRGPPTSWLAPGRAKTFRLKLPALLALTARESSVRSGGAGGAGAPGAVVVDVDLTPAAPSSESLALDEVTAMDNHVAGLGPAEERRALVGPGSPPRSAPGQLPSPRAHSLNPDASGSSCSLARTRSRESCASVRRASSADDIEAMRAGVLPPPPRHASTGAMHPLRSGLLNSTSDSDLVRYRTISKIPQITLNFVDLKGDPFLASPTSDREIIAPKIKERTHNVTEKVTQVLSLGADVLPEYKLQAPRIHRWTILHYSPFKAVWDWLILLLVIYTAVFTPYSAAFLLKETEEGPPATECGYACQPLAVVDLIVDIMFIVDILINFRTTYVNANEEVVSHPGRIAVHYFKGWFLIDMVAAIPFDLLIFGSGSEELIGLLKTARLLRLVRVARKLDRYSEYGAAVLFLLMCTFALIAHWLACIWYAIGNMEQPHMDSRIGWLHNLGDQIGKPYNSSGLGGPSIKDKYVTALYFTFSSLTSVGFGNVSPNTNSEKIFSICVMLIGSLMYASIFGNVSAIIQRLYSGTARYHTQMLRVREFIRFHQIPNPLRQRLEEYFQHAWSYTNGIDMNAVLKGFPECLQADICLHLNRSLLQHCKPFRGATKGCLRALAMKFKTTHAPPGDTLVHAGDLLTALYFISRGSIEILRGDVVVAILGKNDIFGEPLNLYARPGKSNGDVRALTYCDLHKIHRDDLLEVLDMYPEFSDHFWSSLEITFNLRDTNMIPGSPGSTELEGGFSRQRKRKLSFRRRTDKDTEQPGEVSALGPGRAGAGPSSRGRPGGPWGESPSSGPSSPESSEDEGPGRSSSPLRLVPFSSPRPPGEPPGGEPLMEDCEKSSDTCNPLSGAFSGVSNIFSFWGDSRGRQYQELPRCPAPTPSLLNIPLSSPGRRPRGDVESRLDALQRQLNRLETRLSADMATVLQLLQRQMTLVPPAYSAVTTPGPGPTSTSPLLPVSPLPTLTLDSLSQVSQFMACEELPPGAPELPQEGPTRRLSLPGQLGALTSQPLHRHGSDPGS

[25] = system: A549; assay: Antiproliferative activity against human A549/ATCC cells assessed as cell growth at 10^-4 M after 48 hrs by sulforhodamine B assay; type: functional; conditions: A549, 48 h, read-out: Activity
[26] = Antiproliferative activity against human COLO205 cells assessed as growth inhibition after 48 hrs by sulforhodamine B assay; type: functional; conditions: COLO 205, 48 h; for CC50: read-out: LC50 (the source's name)
[27] = system: ACHN; assay: Antiproliferative activity against human ACHN cells assessed as growth inhibition after 48 hrs by sulforhodamine B assay; type: functional
[28] = Antiproliferative activity against human SF295 cells assessed as growth inhibition after 48 hrs by sulforhodamine B assay; type: functional; conditions: SF-295, 48 h; for CC50: read-out: LC50 (the source's name)
[29] = Antiproliferative activity against human RXF393 cells assessed as cell growth at 10^-6 M after 48 hrs by sulforhodamine B assay; type: functional; conditions: RXF 393, 48 h, read-out: Activity
[30] = system: SR; assay: Antiproliferative activity against human SR cells assessed as cell growth at 10^-7 M after 48 hrs by sulforhodamine B assay; type: functional; conditions: read-out: Activity
[31] = system: U-251; assay: Antiproliferative activity against human U251 cells assessed as growth inhibition after 48 hrs by sulforhodamine B assay; type: functional; conditions: U-251, 48 h
[32] = system: KM12; assay: Antiproliferative activity against human KM12 cells assessed as cell growth at 10^-6 M after 48 hrs by sulforhodamine B assay; type: functional; conditions: KM12, 48 h, read-out: Activity
[33] = system: NCI-H522; assay: Antiproliferative activity against human NCI-H522 cells assessed as cell growth at 10^-7 M after 48 hrs by sulforhodamine B assay; type: functional; conditions: NCI-H522, 48 h, read-out: Activity
[34] = Antiproliferative activity against human SF268 cells assessed as cell growth at 10^-4 M after 48 hrs by sulforhodamine B assay; type: functional; conditions: SF-268, 48 h, read-out: Activity
[35] = system: HT-29; assay: Antiproliferative activity against human HT-29 cells assessed as cell growth at 10^-8 M after 48 hrs by sulforhodamine B assay; type: functional; conditions: HT-29, 48 h, read-out: Activity
[36] = system: SK-MEL-2; assay: Antiproliferative activity against human SK-MEL-2 cells assessed as cell growth at 10^-6 M after 48 hrs by sulforhodamine B assay; type: functional; conditions: SK-MEL-2, 48 h, read-out: Activity
[37] = Antiproliferative activity against human HOP92 cells assessed as cell growth at 10^-8 M after 48 hrs by sulforhodamine B assay; type: functional; conditions: HOP-92, 48 h, read-out: Activity

CNC(=O)c1cc(Oc2ccc3nc(NC(=O)Nc4cc(C(F)(F)F)cc(C(F)(F)F)c4)sc3c2)ccn1
growth at 1 µM [1]: 65% | growth at 0.1 µM [2]: 106% | growth at 1 µM [3]: 58% | activity at 5 min, 10 µM [4]: 70.1% | growth at 100 µM [5]: -63% | growth at 0.1 µM [6]: 97% | growth at 0.01 µM [7]: 84% | GI50 [8]: 1 µM | TGI [8]: 2.7 µM | CC50 [8]: 7.26 µM | growth at 1 µM [9]: 63% | growth at 100 µM [10]: -67% | growth at 0.1 µM [11]: 99% | growth at 0.01 µM [12]: 96% | growth at 0.01 µM [13]: 87% | growth at 0.01 µM [14]: 95% | growth at 100 µM [15]: -56% | growth at 100 µM [16]: -73% | growth at 100 µM [17]: -67% | growth at 1 µM [18]: 57% | growth at 0.1 µM [19]: 99% | growth at 1 µM [20]: 75% | growth at 0.1 µM [21]: 90% | growth at 0.1 µM [22]: 82% | growth at 1 µM [23]: 34% | IC50 [24]: > 100 µM | growth at 100 µM [25]: -97% | GI50 [26]: 0.822 µM | TGI [26]: 2.32 µM | CC50 [26]: 5.82 µM | GI50 [27]: 0.542 µM | LC50 [27]: 5.7 µM | TGI [27]: 1.98 µM | GI50 [28]: 1.08 µM | TGI [28]: 2.41 µM | CC50 [28]: 5.38 µM | growth at 1 µM [29]: 63% | growth at 0.1 µM [30]: 91% | GI50 [31]: 1.02 µM | LC50 [31]: 4.78 µM | TGI [31]: 2.2 µM | growth at 1 µM [32]: 25% | growth at 0.1 µM [33]: 97% | growth at 100 µM [34]: -91% | growth at 0.01 µM [35]: 97% | growth at 1 µM [36]: 52% | growth at 0.01 µM [37]: 102%

CNC(=O)c1cc(Oc2ccc3nc(NC(=O)c4cc(C(F)(F)F)cc(C(F)(F)F)c4)sc3c2)ccn1
growth at 1 µM [1]: 79% | growth at 0.1 µM [2]: 97% | growth at 1 µM [3]: 88% | activity at 5 min, 10 µM [4]: 10.3% | growth at 100 µM [5]: -48% | growth at 0.1 µM [6]: 102% | growth at 0.01 µM [7]: 99% | GI50 [8]: 3.13 µM | TGI [8]: 14.8 µM | CC50 [8]: 96.5 µM | growth at 1 µM [9]: 94% | growth at 100 µM [10]: -29% | growth at 0.1 µM [11]: 91% | growth at 0.01 µM [12]: 94% | growth at 0.01 µM [13]: 100% | growth at 0.01 µM [14]: 91% | growth at 100 µM [15]: -27% | growth at 100 µM [16]: -56% | growth at 100 µM [17]: -61% | growth at 1 µM [18]: 99% | growth at 0.1 µM [19]: 91% | growth at 1 µM [20]: 114% | growth at 0.1 µM [21]: 90% | growth at 0.1 µM [22]: 77% | growth at 1 µM [23]: 100% | IC50 [24]: 48.4 µM | growth at 100 µM [25]: -67% | GI50 [26]: 2.82 µM | TGI [26]: 8.21 µM | CC50 [26]: 32.8 µM | GI50 [27]: 3.26 µM | LC50 [27]: 43.2 µM | TGI [27]: 11.8 µM | GI50 [28]: 2.56 µM | TGI [28]: 10.5 µM | CC50 [28]: 49.6 µM | growth at 1 µM [29]: 97% | growth at 0.1 µM [30]: 89% | GI50 [31]: 3.65 µM | LC50 [31]: 53.6 µM | TGI [31]: 13.7 µM | growth at 1 µM [32]: 86% | growth at 0.1 µM [33]: 109% | growth at 100 µM [34]: -37% | growth at 0.01 µM [35]: 108% | growth at 1 µM [36]: 90% | growth at 0.01 µM [37]: 91%

CNC(=O)c1cc(Oc2ccc3nc(NC(=O)Nc4ccc(Cl)c(Cl)c4)sc3c2)ccn1
growth at 1 µM [1]: 95% | growth at 0.1 µM [2]: 99% | growth at 1 µM [3]: 98% | activity at 5 min, 10 µM [4]: 83.6% | growth at 100 µM [5]: 6% | growth at 0.1 µM [6]: 102% | growth at 0.01 µM [7]: 104% | GI50 [8]: 1.73 µM | TGI [8]: 3.61 µM | CC50 [8]: 7.54 µM | growth at 1 µM [9]: 97% | growth at 100 µM [10]: 26% | growth at 0.1 µM [11]: 100% | growth at 0.01 µM [12]: 100% | growth at 0.01 µM [13]: 110% | growth at 0.01 µM [14]: 90% | growth at 100 µM [15]: 23% | growth at 100 µM [16]: -20% | growth at 100 µM [17]: 23% | growth at 1 µM [18]: 88% | growth at 0.1 µM [19]: 115% | growth at 1 µM [20]: 105% | growth at 0.1 µM [21]: 82% | growth at 0.1 µM [22]: 83% | growth at 1 µM [23]: 97% | IC50 [24]: > 100 µM | growth at 100 µM [25]: -41% | GI50 [26]: 4.25 µM | TGI [26]: > 100 µM | CC50 [26]: > 100 µM | GI50 [27]: 2.1 µM | LC50 [27]: > 100 µM | TGI [27]: 5.56 µM | GI50 [28]: 1.53 µM | TGI [28]: 3.13 µM | CC50 [28]: 6.41 µM | growth at 1 µM [29]: 94% | growth at 0.1 µM [30]: 105% | GI50 [31]: 1.83 µM | LC50 [31]: 6.53 µM | TGI [31]: 3.46 µM | growth at 1 µM [32]: 91% | growth at 0.1 µM [33]: 100% | growth at 100 µM [34]: -57% | growth at 0.01 µM [35]: 107% | growth at 1 µM [36]: 105% | growth at 0.01 µM [37]: 100%

From ChEMBL document CHEMBL3797052 (Eur J Med Chem, 2016)
